From ChEMBL document CHEMBL1153245, “A profile of the in vitro anti-tumor activity of imidazolium-based ionic liquids” (2010)

Legend:
Type in all cases: functional
NCI-H322M = test: Anticancer activity against human NCI-H322M cells after 48 hrs by sulforhodamine B assay
TK-10 [1] = test: Anticancer activity against human TK10 cells assessed cell growth at 10 uM after 48 hrs by sulforhodamine B assay relative to control
HCT-15 [2] = test: Anticancer activity against human HCT15 cells assessed cell growth at 10 uM after 48 hrs by sulforhodamine B assay relative to control
KM12 = test: Anticancer activity against human KM12 cells after 48 hrs by sulforhodamine B assay
LOX IMVI = test: Anticancer activity against human LOXIMVI cells after 48 hrs by sulforhodamine B assay
TK-10 [3] = test: Anticancer activity against human TK10 cells after 48 hrs by sulforhodamine B assay
MDA-MB-231 [4] = test: Anticancer activity against human MDA-MB-231 cells after 48 hrs by sulforhodamine B assay
HCT-15 [5] = test: Anticancer activity against human HCT15 cells after 48 hrs by sulforhodamine B assay
NCI-H226 = test: Anticancer activity against human NCI-H226 cells assessed cell growth at 10 uM after 48 hrs by sulforhodamine B assay relative to control
CAKI-1 = test: Anticancer activity against human Caki1 cells after 48 hrs by sulforhodamine B assay
SK-MEL-5 = test: Anticancer activity against human SK-MEL-5 cells assessed cell growth at 10 uM after 48 hrs by sulforhodamine B assay relative to control
OVCAR-5 [6] = test: Anticancer activity against human OVCAR5 cells after 48 hrs by sulforhodamine B assay
OVCAR-5 [7] = test: Anticancer activity against human OVCAR5 cells assessed cell growth at 10 uM after 48 hrs by sulforhodamine B assay relative to control
SK-MEL-2 = test: Anticancer activity against human SK-MEL-2 cells assessed cell growth at 10 uM after 48 hrs by sulforhodamine B assay relative to control
UACC-62 = test: Anticancer activity against human UACC62 cells after 48 hrs by sulforhodamine B assay
BT-549 = test: Anticancer activity against human BT549 cells after 48 hrs by sulforhodamine B assay
M14 = test: Anticancer activity against human M14 cells after 48 hrs by sulforhodamine B assay
NCI-H460 = test: Anticancer activity against human NCI-H460 cells assessed cell growth at 10 uM after 48 hrs by sulforhodamine B assay relative to control
OVCAR-4 = test: Anticancer activity against human OVCAR4 cells after 48 hrs by sulforhodamine B assay
UACC-257 [8] = test: Anticancer activity against human UACC257 cells assessed cell growth at 10 uM after 48 hrs by sulforhodamine B assay relative to control
MDA-MB-468 = test: Anticancer activity against human MDA-MB-468 cells after 48 hrs by sulforhodamine B assay
HOP-62 [9] = test: Anticancer activity against human HOP62 cells assessed cell growth at 10 uM after 48 hrs by sulforhodamine B assay relative to control
ACHN = test: Anticancer activity against human ACHN cells assessed cell growth at 10 uM after 48 hrs by sulforhodamine B assay relative to control
SF-268 = test: Anticancer activity against human SF268 cells assessed cell growth at 10 uM after 48 hrs by sulforhodamine B assay relative to control
UO-31 = test: Anticancer activity against human UO31 cells after 48 hrs by sulforhodamine B assay
HOP-92 [10] = test: Anticancer activity against human HOP92 cells assessed cell growth at 10 uM after 48 hrs by sulforhodamine B assay relative to control
HCT-116 = test: Anticancer activity against human HCT116 cells after 48 hrs by sulforhodamine B assay
SR = test: Anticancer activity against human SR cells after 48 hrs by sulforhodamine B assay
A549 = test: Anticancer activity against human A549 cells after 48 hrs by sulforhodamine B assay
NCI/ADR-RES = test: Anticancer activity against human NCI/ADR-RES cells after 48 hrs by sulforhodamine B assay
HOP-62 [11] = test: Anticancer activity against human HOP62 cells after 48 hrs by sulforhodamine B assay
OVCAR-8 = test: Anticancer activity against human OVCAR8 cells after 48 hrs by sulforhodamine B assay
MDA-MB-231 [12] = test: Anticancer activity against human MDA-MB-231 cells assessed cell growth at 10 uM after 48 hrs by sulforhodamine B assay relative to control
HOP-92 [13] = test: Anticancer activity against human HOP92 cells after 48 hrs by sulforhodamine B assay
COLO 205 = test: Anticancer activity against human COLO205 cells after 48 hrs by sulforhodamine B assay
K562 = test: Anticancer activity against human K562 cells assessed cell growth at 10 uM after 48 hrs by sulforhodamine B assay relative to control
UACC-257 [14] = test: Anticancer activity against human UACC257 cells after 48 hrs by sulforhodamine B assay
786-0 = test: Anticancer activity against human 786-0 cells after 48 hrs by sulforhodamine B assay
OVCAR-3 = test: Anticancer activity against human OVCAR-3 cells after 48 hrs by sulforhodamine B assay
MCF7 = test: Anticancer activity against human MCF7 cells after 48 hrs by sulforhodamine B assay
NCI-H522 = test: Anticancer activity against human NCI-H522 cells after 48 hrs by sulforhodamine B assay
[15] = read-out: LC50 (the source's name)

Q: Which GI50 (NCI-H322M) does the source give for `CCCCCCCCCCCCCCCCCC[n+]1ccn(C)c1.F[P-](F)(F)(F)(F)F` here?
A: 1.61 µM

Q: What about the LC50 (NCI-H322M) of the same molecule?
A: > 100 µM

Q: What about the Activity (TK-10 [1]) of the same molecule?
A: -59.16%

Q: What about the Activity (HCT-15 [2]) of the same molecule?
A: 9.24%

Q: What about the GI50 (KM12) of the same molecule?
A: 0.471 µM

Q: And the CC50 (KM12; [15])?
A: 4 µM

Q: And the GI50 (LOX IMVI)?
A: 0.385 µM

Q: And the CC50 (LOX IMVI; [15])?
A: 3.84 µM

Q: What about the GI50 (TK-10 [3]) of the same molecule?
A: 0.463 µM

Q: And the LC50 (TK-10 [3])?
A: 4.76 µM

Q: What about the GI50 (MDA-MB-231 [4]) of the same molecule?
A: 1.03 µM

Q: What about the CC50 (MDA-MB-231 [4]; [15]) of the same molecule?
A: 5.11 µM

Q: What about the GI50 (HCT-15 [5]) of the same molecule?
A: 1.01 µM

Q: And the CC50 (HCT-15 [5]; [15])?
A: 4.66 µM

Q: What about the Activity (NCI-H226) of the same molecule?
A: -34.72%

Q: And the GI50 (CAKI-1)?
A: 0.791 µM

Q: And the LC50 (CAKI-1)?
A: 8.9 µM

Q: And the Activity (SK-MEL-5)?
A: -85.04%

Q: What about the GI50 (OVCAR-5 [6]) of the same molecule?
A: 1.08 µM

Q: What about the CC50 (OVCAR-5 [6]; [15]) of the same molecule?
A: 7.24 µM

Q: And the Activity (OVCAR-5 [7])?
A: -60.74%

Q: What about the Activity (SK-MEL-2) of the same molecule?
A: -42.48%

Q: And the GI50 (UACC-62)?
A: 1.18 µM

Q: And the LC50 (UACC-62)?
A: 5.2 µM

Q: And the GI50 (BT-549)?
A: 1.29 µM

Q: And the CC50 (BT-549; [15])?
A: 6.91 µM

Q: And the GI50 (M14)?
A: 0.424 µM

Q: What about the LC50 (50% lethal concentration) (M14) of the same molecule?
A: 6.25 µM

Q: And the Activity (NCI-H460)?
A: -67.11%

Q: And the GI50 (OVCAR-4)?
A: 1.03 µM

Q: What about the CC50 (OVCAR-4; [15]) of the same molecule?
A: 6.33 µM

Q: And the Activity (UACC-257 [8])?
A: -62.12%

Q: What about the GI50 (MDA-MB-468) of the same molecule?
A: 0.159 µM

Q: What about the LC50 (MDA-MB-468) of the same molecule?
A: 5.11 µM

Q: What about the Activity (HOP-62 [9]) of the same molecule?
A: -56%

Q: What about the Activity (ACHN) of the same molecule?
A: 5.45%

Q: And the Activity (SF-268)?
A: -48.33%

Q: What about the GI50 (UO-31) of the same molecule?
A: 0.657 µM

Q: What about the LC50 (UO-31) of the same molecule?
A: 5.35 µM

Q: And the Activity (HOP-92 [10])?
A: -47.8%

Q: And the GI50 (HCT-116)?
A: 0.411 µM

Q: What about the GI50 (SR) of the same molecule?
A: 1.85 µM

Q: And the CC50 (SR; [15])?
A: > 100 µM

Q: And the LC50 (concentration killing 50% of cells) (A549)?
A: 9.37 µM

Q: And the GI50 (NCI/ADR-RES)?
A: 1.45 µM

Q: What about the GI50 (HOP-62 [11]) of the same molecule?
A: 1.45 µM

Q: And the CC50 (HOP-62 [11]; [15])?
A: 7.77 µM

Q: And the GI50 (OVCAR-8)?
A: 1.3 µM

Q: And the LC50 (OVCAR-8)?
A: 9.8 µM

Q: What about the Activity (MDA-MB-231 [12]) of the same molecule?
A: -32.88%

Q: And the GI50 (HOP-92 [13])?
A: 0.927 µM

Q: And the CC50 (HOP-92 [13]; [15])?
A: 6.68 µM

Q: What about the GI50 (COLO 205) of the same molecule?
A: 0.389 µM

Q: What about the Activity (K562) of the same molecule?
A: 14.23%

Q: What about the GI50 (UACC-257 [14]) of the same molecule?
A: 1.69 µM

Q: And the LC50 (UACC-257 [14])?
A: 9.66 µM

Q: And the GI50 (786-0)?
A: 1.25 µM

Q: What about the LC50 (50% lethal concentration) (786-0) of the same molecule?
A: 8.58 µM

Q: And the GI50 (OVCAR-3)?
A: 0.453 µM

Q: And the LC50 (50% lethal concentration) (OVCAR-3)?
A: 4.39 µM

Q: What about the GI50 (MCF7) of the same molecule?
A: 0.728 µM

Q: What about the LC50 (50% cell kill) (MCF7) of the same molecule?
A: 4.5 µM

Q: And the GI50 (NCI-H522)?
A: 1.16 µM

Q: And the LC50 (NCI-H522)?
A: 6.77 µM

Q: Which results are given for `CCCCCC[n+]1ccn(C)c1.FC(F)(F)C(F)(F)[P-](F)(F)(F)(C(F)(F)C(F)(F)F)C(F)(F)C(F)(F)F`?
A: Activity (TK-10 [1]): 67.04%; Activity (HCT-15 [2]): 91.62%; Activity (NCI-H226): 57.04%; Activity (SK-MEL-5): 51.37%; Activity (OVCAR-5 [7]): 105.17%; Activity (SK-MEL-2): 47.53%; Activity (NCI-H460): 51.46%; Activity (UACC-257 [8]): 34.16%; Activity (HOP-62 [9]): 88.12%; Activity (ACHN): 54.23%; Activity (SF-268): 103.36%; Activity (HOP-92 [10]): 85.4%; Activity (MDA-MB-231 [12]): 73.1%; Activity (K562): 68.14%

Q: What does the source list for `COCC[n+]1ccn(C)c1.O=S(=O)([N-]S(=O)(=O)C(F)(F)F)C(F)(F)F`?
A: Activity (TK-10 [1]): 123.77%; Activity (HCT-15 [2]): 101.44%; Activity (NCI-H226): 100.3%; Activity (SK-MEL-5): 100.51%; Activity (OVCAR-5 [7]): 112.96%; Activity (SK-MEL-2): 93.96%; Activity (NCI-H460): 108.75%; Activity (UACC-257 [8]): 100.25%; Activity (HOP-62 [9]): 93.93%; Activity (ACHN): 96.19%; Activity (SF-268): 107.22%; Activity (HOP-92 [10]): 71.88%; Activity (MDA-MB-231 [12]): 120.14%; Activity (K562): 109.67%

Q: With `CCCCCCCC[n+]1ccn(C)c1.[Cl-]` as the molecule, how does the Activity (TK-10 [1]) read?
A: 77.56%

Q: What about the Activity (HCT-15 [2]) of the same molecule?
A: 111.4%

Q: And the Activity (NCI-H226)?
A: 75.79%

Q: What about the Activity (SK-MEL-5) of the same molecule?
A: 86.81%

Q: And the Activity (OVCAR-5 [7])?
A: 101.85%

Q: What about the Activity (SK-MEL-2) of the same molecule?
A: 85.11%

Q: What about the Activity (NCI-H460) of the same molecule?
A: 101.53%

Q: What about the Activity (UACC-257 [8]) of the same molecule?
A: 83.24%

Q: What about the Activity (HOP-62 [9]) of the same molecule?
A: 90.78%

Q: What about the Activity (ACHN) of the same molecule?
A: 75.93%

Q: And the Activity (SF-268)?
A: 95.77%

Q: And the Activity (HOP-92 [10])?
A: 106.43%

Q: What about the Activity (MDA-MB-231 [12]) of the same molecule?
A: 74.81%

Q: What about the Activity (K562) of the same molecule?
A: 63.96%

Q: `CCCCCCCCOS(=O)(=O)[O-].CCCCCCCC[n+]1ccn(C)c1` was tested. Which Activity (TK-10 [1]) did it give?
A: 68.07%

Q: What about the Activity (HCT-15 [2]) of the same molecule?
A: 107.62%

Q: And the Activity (NCI-H226)?
A: 74.07%

Q: And the Activity (SK-MEL-5)?
A: 74.87%

Q: What about the Activity (OVCAR-5 [7]) of the same molecule?
A: 98.17%

Q: And the Activity (SK-MEL-2)?
A: 83.39%

Q: What about the Activity (NCI-H460) of the same molecule?
A: 95.98%

Q: What about the Activity (UACC-257 [8]) of the same molecule?
A: 78.7%

Q: And the Activity (HOP-62 [9])?
A: 90.54%

Q: And the Activity (ACHN)?
A: 67.5%

Q: And the Activity (SF-268)?
A: 92.2%

Q: And the Activity (HOP-92 [10])?
A: 107.58%

Q: And the Activity (MDA-MB-231 [12])?
A: 66.28%

Q: And the Activity (K562)?
A: 93.71%
